# Test results from ChEMBL document CHEMBL2073945, “Contribution of cholesterol and phospholipids to inhibitory effect of dimethyl-beta-cyclodextrin on efflux function of P-glycoprotein and multidrug resistance-associated protein 2 in vinblastine-resistant Caco-2 cell monolayers” (Pharm Res, 2004).
# Biological target: ATP-dependent translocase ABCB1 (Homo sapiens, UniProt P08183)
# Experiment: TP_TRANSPORTER: transepithelial transport of Rhodamine 123 (basal to apical) in Caco-2R cells
# Format: functional, cell-based
# ATP-dependent translocase ABCB1, sequence (P08183 whole entry): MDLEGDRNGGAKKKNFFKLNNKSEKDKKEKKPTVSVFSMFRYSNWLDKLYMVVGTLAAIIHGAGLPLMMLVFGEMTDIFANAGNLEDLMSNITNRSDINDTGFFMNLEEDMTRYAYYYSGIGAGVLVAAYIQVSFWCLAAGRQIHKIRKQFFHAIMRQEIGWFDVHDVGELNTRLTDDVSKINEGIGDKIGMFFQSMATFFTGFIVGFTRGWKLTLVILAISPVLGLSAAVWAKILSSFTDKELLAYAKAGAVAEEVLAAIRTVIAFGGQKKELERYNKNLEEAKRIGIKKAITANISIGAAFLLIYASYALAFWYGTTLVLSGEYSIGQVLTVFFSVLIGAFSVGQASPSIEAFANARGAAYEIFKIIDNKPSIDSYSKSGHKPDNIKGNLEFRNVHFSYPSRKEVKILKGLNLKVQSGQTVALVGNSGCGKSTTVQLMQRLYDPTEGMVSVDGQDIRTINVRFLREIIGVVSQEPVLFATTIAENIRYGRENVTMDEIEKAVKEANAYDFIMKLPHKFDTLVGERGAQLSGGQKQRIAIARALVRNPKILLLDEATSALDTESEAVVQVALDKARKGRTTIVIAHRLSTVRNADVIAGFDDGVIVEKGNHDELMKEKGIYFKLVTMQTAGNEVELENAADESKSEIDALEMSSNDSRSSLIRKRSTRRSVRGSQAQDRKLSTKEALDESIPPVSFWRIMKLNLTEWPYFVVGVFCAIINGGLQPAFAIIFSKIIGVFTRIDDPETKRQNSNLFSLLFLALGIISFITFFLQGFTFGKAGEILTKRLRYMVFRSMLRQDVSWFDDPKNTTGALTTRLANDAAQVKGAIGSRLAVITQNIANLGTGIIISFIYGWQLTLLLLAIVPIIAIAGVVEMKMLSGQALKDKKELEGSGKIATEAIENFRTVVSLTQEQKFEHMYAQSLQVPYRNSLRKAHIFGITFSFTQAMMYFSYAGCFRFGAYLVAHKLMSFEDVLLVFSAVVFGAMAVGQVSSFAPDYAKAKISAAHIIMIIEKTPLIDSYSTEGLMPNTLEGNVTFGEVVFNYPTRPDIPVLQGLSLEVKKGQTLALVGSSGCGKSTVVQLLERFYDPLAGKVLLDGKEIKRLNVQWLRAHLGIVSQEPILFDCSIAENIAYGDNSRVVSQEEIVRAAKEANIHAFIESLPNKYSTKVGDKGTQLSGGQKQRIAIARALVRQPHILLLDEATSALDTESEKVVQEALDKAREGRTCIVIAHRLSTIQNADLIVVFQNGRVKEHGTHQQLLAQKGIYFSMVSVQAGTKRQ
row,Compound,Activity
1,COC[C@H]1O[C@@H]2O[C@H]3[C@H](O)[C@@H](OC)[C@@H](O[C@H]4[C@H](O)[C@@H](OC)[C@@H](O[C@H]5[C@H](O)[C@@H](OC)[C@@H](O[C@H]6[C@H](O)[C@@H](OC)[C@@H](O[C@H]7[C@H](O)[C@@H](OC)[C@@H](O[C@H]8[C@H](O)[C@@H](OC)[C@@H](O[C@H]1[C@H](O)[C@H]2OC)O[C@@H]8COC)O[C@@H]7COC)O[C@@H]6COC)O[C@@H]5COC)O[C@@H]4COC)O[C@@H]3COC,inhibitor [+]
2,CCCC(OC(CCC)S(=O)(=O)O)S(=O)(=O)O.OC[C@H]1O[C@@H]2O[C@H]3[C@H](O)[C@@H](O)[C@@H](O[C@H]4[C@H](O)[C@@H](O)[C@@H](O[C@H]5[C@H](O)[C@@H](O)[C@@H](O[C@H]6[C@H](O)[C@@H](O)[C@@H](O[C@H]7[C@H](O)[C@@H](O)[C@@H](O[C@H]8[C@H](O)[C@@H](O)[C@@H](O[C@H]1[C@H](O)[C@H]2O)O[C@@H]8CO)O[C@@H]7CO)O[C@@H]6CO)O[C@@H]5CO)O[C@@H]4CO)O[C@@H]3CO,is not an inhibitor [-]
3,COC[C@@H]1O[C@H]2O[C@@H]3[C@@H](O)[C@H](O)[C@H](O[C@@H]4[C@@H](O)[C@H](O)[C@H](O[C@H]5[C@H](OC)[C@@H](O)[C@@H](O[C@@H]6[C@@H](O)[C@H](O)[C@H](O[C@@H]7[C@@H](O)[C@H](O)[C@H](O[C@@H]8[C@@H](O)[C@H](O)[C@H](O[C@@H]1[C@@H](O)[C@@H]2O)O[C@H]8COC)O[C@H]7COC)O[C@H]6COC)O[C@@H]5COC)O[C@H]4COC)O[C@H]3COC,is not an inhibitor [-]
4,CC(O)COC[C@H]1O[C@@H]2O[C@H]3[C@H](O)[C@@H](O)[C@@H](O[C@H]4[C@H](O)[C@@H](O)[C@@H](O[C@H]5[C@H](O)[C@@H](O)[C@@H](O[C@H]6[C@H](O)[C@@H](O)[C@@H](O[C@H]7[C@H](O)[C@@H](O)[C@@H](O[C@H]8[C@H](O)[C@@H](O)[C@@H](O[C@H]1[C@H](O)[C@H]2O)O[C@@H]8COCC(C)O)O[C@@H]7COCC(C)O)O[C@@H]6COCC(C)O)O[C@@H]5COCC(C)O)O[C@@H]4COCC(C)O)O[C@@H]3COCC(C)O (stereo partly drawn) [2-HYDROXYPROPYL-BETA-CYCLODEXTRIN],is not an inhibitor [-]
